Source: PubChem BioAssay (NCI)
Values joined by “and” are separate entries in the source; they are usually repeats but may differ in a detail not shown here. Equal entries are not always repeated.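 All cell lines were grown in 96-well plates and treated with compound for 48 hours. GI50: concentration for 50% inhibition of growth. TGI: concentration producing complete growth inhibition.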

Tests used:
Experiment in all cases: NCI anticancer screen, dose series, 48 h
NCI-H460 lung = system: NCI-H460 lung
NCI-H226 lung = system: NCI-H226 lung
UACC-257 melanoma = system: UACC-257 melanoma
CCRF-CEM leukemia = system: CCRF-CEM leukemia
MDA-MB-435 = system: MDA-MB-435
SK-MEL-28 melanoma = system: SK-MEL-28 melanoma
A549 NSCLC = system: A549 NSCLC
ACHN renal = system: ACHN renal
SW-620 colon = system: SW-620 colon
HCT-15 colon = system: HCT-15 colon

| SMILES | GI50 (NCI-H460 lung) | TGI (NCI-H460 lung) | GI50 (NCI-H226 lung) | TGI (NCI-H226 lung) | GI50 (UACC-257 melanoma) | TGI (UACC-257 melanoma) | GI50 (CCRF-CEM leukemia) | TGI (CCRF-CEM leukemia) | GI50 (MDA-MB-435) | TGI (MDA-MB-435) | GI50 (SK-MEL-28 melanoma) | TGI (SK-MEL-28 melanoma) | GI50 (A549 NSCLC) | TGI (A549 NSCLC) | GI50 (ACHN renal) | TGI (ACHN renal) | GI50 (SW-620 colon) | TGI (SW-620 colon) | GI50 (HCT-15 colon) | TGI (HCT-15 colon) |
| --- | --- | --- | --- | --- | --- | --- | --- | --- | --- | --- | --- | --- | --- | --- | --- | --- | --- | --- | --- | --- |
| CCN1C(=O)N(CC)C2C1NN=c1s/c(=C3\C(=O)N(CC(C)(C)C)c4ccccc43)c(=O)n12 (configuration not stated) | 3.39 µM | 13.4 µM | 5.71 µM | 28.1 µM | 13.1 µM | 37.9 µM | 3.62 µM | > 100 µM | 1.54 µM | 7.1 µM | 6.94 µM | 22 µM | 4.35 µM | 36.4 µM | 4.04 µM | 18.1 µM | 4.75 µM | 21.9 µM | 3.31 µM | 18.4 µM |
| Cc1nc2sc3c(c2c(=O)[nH]1)CCCC3 |  | 86.1 µM |  | > 100 µM |  | > 100 µM |  |  |  | > 100 µM |  | > 100 µM |  | > 100 µM |  | > 100 µM |  | > 100 µM |  | > 100 µM |
| O=S(=O)(Nc1ccc(F)cc1F)c1ccc(-c2cnc(C3CC3)o2)cc1 | 0.404 µM | 28.2 µM | 1.7 µM | 43.3 µM | 10.3 µM | 51.8 µM | 0.856 µM | > 100 µM | 0.14 µM | 2.72 µM | 13.1 µM | > 71.9 µM | 0.868 µM | > 100 µM | 1.62 µM | 31.2 µM | 0.395 µM | > 100 µM | 0.37 µM | 46.7 µM |
| O=C(O)c1ccc(OCc2ccccc2)c(Cl)c1 |  | > 100 µM |  | > 100 µM |  | > 100 µM |  | > 100 µM |  | > 100 µM |  | > 100 µM |  | > 100 µM |  | > 100 µM |  | > 100 µM |  | > 100 µM |
| Cc1cc(C)c(/C=C2\C(=O)Nc3ccc(NC(=O)CCCCCCC(=O)NO)cc32)[nH]1 | > 50.6 µM | > 100 µM | > 100 µM | > 100 µM | 0.418 µM | > 100 µM | 0.311 µM | > 100 µM | 0.44 µM | > 100 µM | 0.525 µM | > 100 µM | > 100 µM | > 100 µM | 6.18 µM | > 100 µM | 0.317 µM | 36.2 µM | > 100 µM | > 100 µM |
| O=C(c1ccc(/C=C/c2n[nH]c3ccccc23)cc1)N1CCNCC1 | 1.87 µM and 1.09 µM | 3.58 µM and 12.7 µM | > 10 µM and 1.84 µM | > 10 µM and 8.66 µM | 1.76 µM and 7.57 µM | 3.3 µM and 21 µM | 6.03 µM and 10.4 µM | > 10 µM and 75.8 µM | 1.54 µM and 2.58 µM | 2.9 µM and 15.5 µM | 1.71 µM and 5.99 µM | 3.34 µM and 19.8 µM | 2.95 µM and 2.57 µM | > 10 µM and 39.4 µM | > 10 µM and 4.05 µM | > 10 µM and 25.3 µM | 1.96 µM and 1.47 µM | 4.14 µM and 10.8 µM | 1.5 µM and 3.47 µM |  |
| NCCSc1nc(-c2ccccc2)c(-c2ccccc2)o1 |  | > 100 µM |  | > 100 µM |  | > 100 µM |  |  |  | > 100 µM |  | > 100 µM |  | > 100 µM |  | > 100 µM |  | > 100 µM |  | > 100 µM |
| Cc1cc(C)c(NC(=O)c2sc3nc4c(cc3c2N)CN(Cc2ccccc2)CC4)c(C)c1 | 3.29 µM | 16.3 µM | 4.69 µM | > 100 µM | 6.71 µM | > 100 µM | 3.16 µM | 59.7 µM | 0.399 µM | 4.38 µM | 6.97 µM | 40.4 µM | 4.11 µM | > 100 µM | 6.31 µM | > 100 µM | 2.6 µM | 17.1 µM | 2.12 µM | > 100 µM |
| O=C(O)CC(NC(=O)CP(=O)(O)O)C(=O)O (configuration not stated) | 79.5 µM | > 8670 µM |  | 7210 µM | 3150 µM | > 10000 µM |  | > 10000 µM | 48.8 µM | > 10000 µM | 389 µM | > 10000 µM | 95.7 µM | 4250 µM |  | > 10000 µM |  | > 10000 µM |  | 9160 µM |
| O[C@H](c1cc(C(F)(F)F)nc2c(C(F)(F)F)cccc12)[C@@H]1CCCCN1 | 2.28 µM | 5.28 µM | 6.72 µM | 22.6 µM | 3.84 µM | 9.11 µM | 8.52 µM | 40.7 µM | 2.43 µM | 7.07 µM | 2.29 µM | 5.63 µM | 5.25 µM | 16.3 µM | 2.82 µM | 10.7 µM | 2.05 µM | 4.52 µM | 11.9 µM | 27 µM |
| N=C(N)c1ccc2nc(-c3cc(CC(=O)N[C@@H](CC(=O)O)C(=O)O)cc(-c4cc(S(N)(=O)=O)ccc4O)c3O)[nH]c2c1 | > 100 µM | > 100 µM | > 100 µM | > 100 µM | > 100 µM | > 100 µM | > 100 µM | > 100 µM | > 100 µM | > 100 µM | > 100 µM | > 100 µM | > 100 µM | > 100 µM | > 100 µM | > 100 µM | > 100 µM | > 100 µM | > 100 µM | > 100 µM |
| Cn1cc(C2=C(c3cccc(Br)c3)C(=O)NC2=O)c2ccccc21 | 16.9 µM | > 25 µM | 10.4 µM | > 25 µM | > 19.8 µM | > 25 µM | 12.3 µM | > 25 µM | 5.82 µM | > 25 µM | > 22.9 µM | > 25 µM | 11.1 µM | > 25 µM | 14.5 µM | > 25 µM | 9.44 µM | > 25 µM | 9.24 µM | > 25 µM |
| CC(C)(S)C(N)C(=O)O (configuration not stated) | 937 µM | 2730 µM and > 100 µM | > 5000 µM | > 5000 µM | 4860 µM | > 5000 µM | 612 µM | > 5000 µM | 1890 µM | > 5000 µM | > 5000 µM | > 5000 µM | 1780 µM | > 5000 µM | > 5000 µM | > 5000 µM | 2220 µM | > 5000 µM | 1950 µM | > 5000 µM |
| CCOC(=O)c1c(NC(=O)c2cccc(C(F)(F)F)c2)sc2c(CN(C)C)c(O)ccc12 | 2.19 µM | 4.76 µM | 16 µM | 36.2 µM | 1.76 µM | 3.31 µM | 3.41 µM | 11.7 µM | 3.15 µM | 12.9 µM | 1.76 µM | 3.21 µM | 3.3 µM | 12.7 µM | 4.49 µM | 15.8 µM | 2.31 µM | 5.53 µM | 2.13 µM | 5.77 µM |
